Data: patent US6387954B1, “Alkenyl sulphonamide derivatives” (Eli Lilly and Company, priority 1998, dated 2002)

Biological target: T1, human GluR4B receptor (Homo sapiens, UniProt P48058)
T1 construct: expressed in transfected cells; host or cells: HEK293
Test: potentiation of agonist-induced excitability of GluR4B expressed in HEK 293 cells
Assay type: cell-based
Conditions: human GluR4B receptor expressed in HEK 293 cells
Description: The ability of compounds of formula I to potentiate glutamate receptor-mediated response may be determined using fluorescent calcium indicator dyes (Molecular Probes, Eugene, Oregon, Fluo-3) and by measuring glutamate-evoked […] of calcium into GluR4 transfected HEK293 cells, as described in more detail below.
In one test, 96 well plates containing confluent monolayers of HEK cells stably expressing human GluR4B (obtained as described in European Patent Application Publication Number EP-A1-583917) are prepared. The tissue culture medium in the wells is then discarded, and the wells are each washed once with 200 μl of buffer (glucose, 10 mM, sodium chloride, 138 mM, magnesium chloride, 1 mM, potassium chloride, 5 mM, calcium chloride, 5 mM, N-[2-hydroxyethyl]-piperazine-N-[2-ethanesulfonic acid], 10 mM, to pH 7.1 to 7.3). […]
Each test is then performed as follows. […] A second fluorescent reading is taken after 5 minutes incubation. 15 μl of 400 μM glutamate solution is then added to each well (final glutamate concentration 100 μM), and a third reading is taken. The activities of test compounds and cyclothiazide solutions are determined by subtracting the second from the third reading (fluorescence due to addition of glutamate in the presence or absence of test compound or cyclothiazide) and are expressed relative to enhance fluorescence produced by 100 μM cyclothiazide.

T1 sequence (P48058 21-902): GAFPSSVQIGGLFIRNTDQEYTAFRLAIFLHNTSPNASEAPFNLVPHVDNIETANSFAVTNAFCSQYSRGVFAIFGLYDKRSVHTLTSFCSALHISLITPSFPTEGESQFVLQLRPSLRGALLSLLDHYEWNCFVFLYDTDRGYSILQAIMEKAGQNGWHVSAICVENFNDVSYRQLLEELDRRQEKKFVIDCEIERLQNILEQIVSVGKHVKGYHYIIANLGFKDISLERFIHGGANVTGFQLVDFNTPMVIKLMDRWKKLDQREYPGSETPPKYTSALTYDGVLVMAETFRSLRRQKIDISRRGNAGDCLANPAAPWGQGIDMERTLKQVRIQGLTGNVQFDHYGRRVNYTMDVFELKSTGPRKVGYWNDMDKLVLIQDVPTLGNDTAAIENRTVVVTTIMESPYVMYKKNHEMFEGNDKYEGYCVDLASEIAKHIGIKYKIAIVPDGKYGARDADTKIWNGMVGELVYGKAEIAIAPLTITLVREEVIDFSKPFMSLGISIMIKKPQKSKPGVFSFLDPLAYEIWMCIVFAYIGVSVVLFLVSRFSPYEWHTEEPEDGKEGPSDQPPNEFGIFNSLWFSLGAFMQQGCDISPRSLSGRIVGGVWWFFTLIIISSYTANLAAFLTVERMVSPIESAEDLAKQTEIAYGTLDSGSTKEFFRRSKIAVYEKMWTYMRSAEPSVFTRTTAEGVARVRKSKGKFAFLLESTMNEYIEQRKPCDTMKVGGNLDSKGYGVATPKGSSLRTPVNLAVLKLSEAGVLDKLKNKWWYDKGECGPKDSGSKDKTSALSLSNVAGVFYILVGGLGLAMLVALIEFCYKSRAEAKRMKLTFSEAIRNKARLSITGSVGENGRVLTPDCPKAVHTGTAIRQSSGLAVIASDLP

NS(=O)(=O)c1cc2c(cc1Cl)NC(C1CC3C=CC1C3)NS2(=O)=O (stereo not shown) [cyclothiazide]
potentiation of agonist-induced excitability: potentiate agonist-induced excitability
